According to patent US11713335B2, “Aminocoumarin compounds and methods of their use” (President and Fellows of Harvard College, priority 2018, dated 2023):
≈ marks a conversion by molar mass, not a printed value. Read-outs that look alike come from different tables or passages of the source.

Experiments:
[1] = tested on: S. aureus MW2; assay: Minimal inhibitory concentration, S. aureus MW2; assay type: cell-based; details: 16 hour minimal inhibitory concentration at 37° C., read-out: MIC (μM) S. aureus MW2 (MRSA)
Procedure, shortened: (§1)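 MICs (µM) correspond to the lowest concentration stopping bacterial growth, judged by visible-light absorbance at 600 nm following a 16 h static incubation at 37 °C. Compounds were titrated twofold into doubly 1:100-diluted saturated cultures.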

[2] = tested on: A. baumannii 19606; assay: Minimal inhibitory concentration, A. baumannii 19606; assay type: cell-based; details: 16 hour minimal inhibitory concentration at 37° C., read-out: MIC (μM) A. baumannii 19606
Procedure, shortened: as §1

[3] = tested on: K. pneumoniae 700721; assay: Minimal inhibitory concentration, K. pneumoniae 700721; assay type: cell-based; details: 16 hour minimal inhibitory concentration at 37° C., read-out: MIC (μM) K. pneumoniae 700721
Procedure, shortened: as §1

[4] = tested on: S. aureus RN4220; assay: Minimal inhibitory concentration, S. aureus RN4220; assay type: cell-based; details: 16 hour minimal inhibitory concentration at 37° C., read-out: MIC (μM) S. aureus RN4220
Procedure, shortened: as §1

[5] = tested on: E. coli 25922; assay: Minimal inhibitory concentration, E. coli 25922; assay type: cell-based; details: 16 hour minimal inhibitory concentration at 37° C., read-out: MIC (μM) E. coli 25922
Procedure, shortened: as §1

[6] = tested on: E. coli MC4100; assay: Minimal inhibitory concentration, E. coli MC4100; assay type: cell-based; details: 16 hour minimal inhibitory concentration at 37° C., read-out: MIC (μM) E. coli MC4100 ara+
Procedure, shortened: as §1

[7] = tested on: E. cloacae 13047; assay: Minimal inhibitory concentration, E. cloacae 13047; assay type: cell-based; details: 16 hour minimal inhibitory concentration at 37° C., read-out: MIC (μM) E. cloacae 13047
Procedure, shortened: as §1

[8] = tested on: WT E. coli; assay: Minimal inhibitory concentration in wild-type E. coli; assay type: cell-based, Escherichia coli; details: wild-type E. coli, 37° C., 16 hours, read-out: MIC (μM) in WT E. coli
Procedure, shortened: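 Broth microdilution: saturated LB overnight culture diluted 1:100 twice, compound serially two-fold diluted across the plate from DMSO stock. Static incubation 16 hours at 37° C, OD600 read; MIC taken as lowest concentration inhibiting growth.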

[9] = Staphylococcus aureus, MRSA, 16 h
[10] = Acinetobacter baumannii, 19606, 16 h
[11] = Staphylococcus aureus, RN4220, 16 h

| SMILES | MIC [1] [µM] | MIC [2] [µM] | MIC [3] [µM] | MIC [4] [µM] | MIC [5] [µM] | MIC [6] [µM] | MIC [7] [µM] | MIC [8] [µM] | MIC [1, 9] [µM] | MIC [2, 10] [µM] | MIC ([3]; Klebsiella pneumoniae, 700721) [µM] | MIC [4, 11] [µM] | MIC ([5]; Escherichia coli, 25922, 16 h) [µM] | MIC ([6]; Escherichia coli, MC4100, 16 h) [µM] | MIC ([7]; Enterobacter cloacae, 13047) [µM] | MIC ([8]; Escherichia coli) [µM] |
| --- | --- | --- | --- | --- | --- | --- | --- | --- | --- | --- | --- | --- | --- | --- | --- | --- |
| CO[C@@H]1[C@@H](OC(N)=O)[C@@H](O)[C@H](Oc2ccc3c(O)c(NC(=O)Cc4ccccc4)c(=O)oc3c2C)OC1(C)C [Compound 42] | >100 | >50 | >100 | >100 | >200 | >200 | >100 | >300 | – | – | – | – | – | – | – | – |
| CO[C@@H]1[C@@H](OC(N)=O)[C@@H](O)[C@H](Oc2ccc3c(O)c(NC(=O)c4ccc[nH]4)c(=O)oc3c2C)OC1(C)C [Compound 15] | – | – | – | – | – | – | – | – | > 100 | > 50 | > 100 | > 100 | > 200 | > 200 | > 100 | > 300 |
| CO[C@@H]1[C@@H](OC(N)=O)[C@@H](O)[C@H](Oc2ccc3c(O)c(NC(=O)c4cccc(-c5cccc(C(F)(F)F)c5)c4)c(=O)oc3c2C)OC1(C)C [Compound 56] | 0.46 (≈ 0.309 µg/mL) | 37 (≈ 24.9 µg/mL) | >100 | 0.74 (≈ 0.498 µg/mL) | >200 | >200 | >100 | >300 | – | – | – | – | – | – | – | – |
| CO[C@@H]1[C@@H](OC(N)=O)[C@@H](O)[C@H](Oc2ccc3c(O)c(NC(=O)c4ccc5ccn(C)c5c4)c(=O)oc3c2C)OC1(C)C [Compound 70] | 43 (≈ 25 µg/mL) | >50 | >100 | 86 (≈ 50 µg/mL) | >200 | >200 | >100 | >300 | – | – | – | – | – | – | – | – |
| CO[C@@H]1[C@@H](OC(N)=O)[C@@H](O)[C@H](Oc2ccc3c(O)c(NC(=O)CCc4ccccc4)c(=O)oc3c2C)OC1(C)C [Compound 43] | – | – | – | – | – | – | – | – | > 100 | > 50 | > 100 | > 100 | > 200 | > 200 | > 100 | > 300 |
| CO[C@@H]1[C@@H](OC(N)=O)[C@@H](O)[C@H](Oc2ccc3c(O)c(NC(=O)c4cccc(-c5ccc([N+](=O)[O-])cc5)c4)c(=O)oc3c2C)OC1(C)C [Compound 24] | 5 (≈ 3.25 µg/mL) | >50 | >100 | 5 (≈ 3.25 µg/mL) | 154 (≈ 100 µg/mL) | >200 | >100 | >300 | – | – | – | – | – | – | – | – |
| CO[C@@H]1[C@@H](OC(N)=O)[C@@H](O)[C@H](Oc2ccc3c(O)c(NC(=O)c4cccc(Cc5ccccc5)c4)c(=O)oc3c2C)OC1(C)C [Compound 69] | 3 (≈ 1.86 µg/mL) | >50 | >100 | 5 (≈ 3.09 µg/mL) | 81 (≈ 50.1 µg/mL) | 89 (≈ 55.1 µg/mL) | >100 | 89 (≈ 55.1 µg/mL) | – | – | – | – | – | – | – | – |
| CO[C@@H]1[C@@H](OC(N)=O)[C@@H](O)[C@H](Oc2ccc3c(O)c(NC(=O)c4cccc(N5CCOCC5)c4)c(=O)oc3c2C)OC1(C)C [Compound 23] | – | – | – | – | – | – | – | – | 82 (≈ 50.3 µg/mL) | > 50 | > 100 | 82 (≈ 50.3 µg/mL) | > 200 | > 200 | > 100 | > 300 |
| CO[C@@H]1[C@@H](OC(N)=O)[C@@H](O)[C@H](Oc2ccc3c(O)c(NC(=O)/C=C/c4ccccc4)c(=O)oc3c2C)OC1(C)C [Compound 27] | – | – | – | – | – | – | – | – | 23 (≈ 12.8 µg/mL) | > 50 | > 100 | 45 (≈ 25 µg/mL) | > 200 | > 200 | > 100 | > 300 |
